According to patent US9045401B2, “Methods for treating or ameliorating a melanoma and killing melanoma cells” (THE REGENTS OF THE UNIVERSITY OF CALIFORNIA, priority 2007, dated 2015):

System: A549 cells
Assay: confocal microscopy of ceramide and caspase 8
Type: cell-based, human
Conditions: 300 nM, 30 minutes after treatment
Procedure: Confocal microscopy. […] After treatment, the cells were fixed 10 minutes at room temperature with 4% PFA, washed twice with PBS, permeabilized 2 minutes at room temperature with 0.1% triton in PBS and blocked for 30 minutes with sterile 2% BSA in PBS. The staining was performed at room temperature for 2 hours (h), with mouse monoclonal anti-human ceramide (Alexis) and rabbit anti-human caspase 8 (BD Pharmingen) antibodies followed by secondary goat anti-mouse ALEXA FLUOR568™ and goat anti-rabbit ALEXA FLUOR488™ antibodies (Invitrogen). The blue DNA binding dye TOPRO-3™ (Molecular Probes) was added together with the secondary antibodies. The cells were washed three times with PBS between the different incubation steps and the incubation with the secondary fluorescently labeled antibodies was performed in the dark. All antibodies were diluted in PBS. Confocal images were recorded on a Nikon ECLIPSE C1™ confocal microscope.

With `CCCCC/C=C\C/C=C\C/C=C\C/C=C\CCCC(=O)O` [arachidonic acid, reference compound] the cell surface ceramide was “absent”.
